Measured values published in PMC6155222, “3-Substituted N-Benzylpyrazine-2-carboxamide Derivatives: Synthesis, Antimycobacterial and Antibacterial Evaluation” (Molecules : A Journal of Synthetic Chemistry and Natural …, 2017).
Values after ≈ are worked out from the molar mass of the structure shown. Like-named read-outs stand apart in the source and are kept apart here.

Experiments:
[1] = test system: Mycobacterium smegmatis CCM 4622 (ATCC 607); assay: Antimycobacterial screening, microdilution broth panel method with resazurin; assay type: cell-based; details: Mycolicibacterium smegmatis, 48 h + 4 h
Description: An antimycobacterial assay was performed with fast growing Mycobacterium smegmatis CCM 4622 (ATCC 607) from the Czech Collection of Microorganisms (Brno, Czech Republic). The technique used for activity determination was a microdilution broth panel method using 96-well microtitration plates. The culturing medium was Middlebrook 7H9 (MB) broth (Sigma-Aldrich), enriched with 0.4% of glycerol (Sigma-Aldrich) and 10% of Middlebrook OADC growth supplement (Himedia, Mumbai, India). Tested compounds were dissolved in DMSO (Sigma-Aldrich), and the MB broth was then added to obtain a concentration of 2000 μg·mL^−1. Standards used for activity determination were isoniazid (INH), rifampicin (RIF), and ciprofloxacin (CPX) (Sigma-Aldrich). Final concentrations were reached by binary dilution and the addition of mycobacterial suspension, and were set as 500, 250, 125, 62.5, 31.25, 15.625, 7.81, and 3.91 μg·mL^−1, except for the standards of ciprofloxacin and rifampicin, where the final concentrations were 12.5, 6.25, 3.125, 1.56, 0.78, 0.39, 0.195, and 0.098 μg·mL^−1. […] Plates were also sealed with polyester adhesive film and incubated in the dark at 37 °C, without agitation. The addition of 0.01% solution of resazurin sodium salt followed after 48 h. This stain was prepared by dissolving resazurin sodium salt (Sigma-Aldrich) in deionised water, producing a 0.02% solution. Then, a 10% aqueous solution of Tween 80 (Sigma-Aldrich) was prepared. Both liquids were mixed up making use of the same volumes and filtered through a syringe membrane filter. Microtitration panels were then incubated for a further 4 h. Antimycobacterial activity was expressed as the minimal inhibition concentration (MIC) and the value was read on the basis of stain colour change (blue colour—active compound; pink colour—not active compound). […] All experiments were conducted in duplicate.

[2] = Determination of lipophilicity by RP-HPLC (log k); details: RP-HPLC capacity factor, MeOH 70% / H2O 30%, C18, 30 °C
Description: Log k was determined using an Agilent Technologies 1200 SL liquid chromatograph with Diode-array Detector SL G1315C (Agilent Technologies Inc., Colorado Springs, CO, USA), with pre-column ZORBAX XDB-C18 5 μm, 4 mm × 4 mm, Part No. 7995118-504 (Agilent Technologies Inc.) and column ZORBAX Eclipse XDB-C18 5 μm, 4.6 mm × 250 mm, Part No. 7995118-585 (Agilent Technologies Inc.). The separation process was controlled by Agilent ChemStation, version B.04.02, extended by a spectral module (Agilent Technologies Inc.). The mobile phase consisted of MeOH (HPLC grade, 70%) and H2O (HPLC-Milli-Q Grade, 30%).
The flow rate was 1.0 mL/min, samples were injected in a volume of 20 μL, and the column temperature was 30 °C. A value of 210 nm as the detection wavelength and 270 nm as the monitor wavelength were used. Retention times (tR) were measured in minutes. The dead time of the system (tD) was determined as the retention time of the KI methanol solution. Capacity factors k for individual compounds were calculated according to the formula k = (tR − tD)/tD. Log k, calculated from the capacity factor k, as used as the lipophilicity index converted to log scale.

[3] = test system: Mycobacterium tuberculosis H37Rv; assay: Microplate Alamar Blue Assay (MABA), microdilution panel method; assay type: cell-based
[4] = Cytotoxicity assay, CellTiter 96 Aqueous One Solution; assay type: cell-based; details: human; HepG2 cells, 24 h exposure
Description: The human liver hepatocellular carcinoma cell line HepG2 (passage 35–36), purchased from Health Protection Agency Culture Collections (ECACC, Salisbury, UK), was routinely cultured in Minimum Essential Eagle Medium MEM (Sigma-Aldrich) supplemented with 10% fetal bovine serum (PAA Laboratories GmbH, Pasching, Austria), 2mM L-glutamine solution (Sigma-Aldrich), and 1% non-essential amino acid solution (Sigma-Aldrich), in a humidified atmosphere containing 5% CO2 at 37 °C.
For subculturing, the cells were harvested after trypsin/EDTA (Sigma-Aldrich) treatment at 37 °C. To evaluate the cytotoxicity, the HepG2 cells treated with the tested substances were used as experimental groups, whereas untreated HepG2 cells served as control groups.
The HepG2 cells were seeded in a density of 1 × 10^4 cells per well on a 96-well plate. The following day (24 h after seeding), they were treated with tested substances dissolved in DMSO (maximal incubation concentration of DMSO was 1%). […] The treatment was carried out in a humidified atmosphere containing 5% CO2 at 37 °C, in triplicate, for 24 h. The controls representing 100% cell viability, 0% cell viability (the cells treated with 10% DMSO), no-cell controls, and vehiculum controls were incubated in triplicate, simultaneously. After 24 h exposure, the reagent from the kit CellTiter 96® Aqueous One Solution Cell Proliferation Assay (Promega) was added, according to the recommendation of the manufacturer. After 2 h incubation at 37 °C in humidified, 5% CO2 atmosphere, the absorbance was recorded at 490 nm. Inhibitory curves were constructed for each compound, plotting incubation concentrations vs. percentage of absorbance relative to untreated control. The standard toxicological parameter IC50 was calculated by a nonlinear regression analysis of the inhibitory curves using GraphPad Prism software (version 6, GraphPad Software, Inc., La Jolla, CA, USA).

[5] = test system: Staphylococcus epidermidis H 6966/08; assay: Antibacterial microdilution broth method; assay type: cell-based; details: read-out: MIC after 24 h S. epidermidis
Description: (§1) Microdilution broth method. Antibacterial evaluation was performed against eight bacterial strains from the Czech Collection of Microorganisms (Brno, Czech Republic) (Staphylococcus aureus CCM 4516/08, Escherichia coli CCM 4517, Pseudomonas aeruginosa CCM 1961) or clinical isolates from the Department of Clinical Microbiology, University Hospital and Faculty of Medicine in Hradec Králové, Charles University in Prague, Czech Republic (Staphylococcus aureus H 5996/08-methicilin resistant (MRSA), Staphylococcus epidermidis H 6966/08, Enterococcus sp. J 14365/08, Klebsiella pneumoniae D 11750/08, Klebsiella pneumoniae J 14368/08-ESBL positive). All strains were subcultured on Mueller-Hinton agar (MHA) (Difco/Becton Dickinson, Detroit, MI, USA) at 35 °C and maintained on the same medium at 4 °C. The compounds were dissolved in DMSO, and the antibacterial activity was determined in Mueller-Hinton liquid broth (Difco/Becton Dickinson), and buffered to pH 7.0. Controls consisted of medium and DMSO alone. […] The minimum inhibitory concentration (MIC), defined as the minimum concentration to prevent the visible growth compared to control, was determined after 24 and 48 h of static incubation at 35 °C. The standards were neomycin, bacitracin, penicillin G, ciprofloxacin, and phenoxymethylpenicillin.

[6] = test system: Staphylococcus aureus H 5996/08-methicilin resistant (MRSA); assay: Antibacterial microdilution broth method; assay type: cell-based; details: 24 h, read-out: MIC after 24 h MRSA
Description: as §1

[7] = test system: Staphylococcus aureus CCM 4516/08; assay: Antibacterial microdilution broth method; assay type: cell-based; details: CCM4516, 24 h, read-out: MIC after 24 h S. aureus
Description: as §1

[8] = Staphylococcus epidermidis, H6966/08, 24 h

| Compound | MIC [1] [µg/mL] | Log k [2] | MIC ([3]; pH 6.6) [µg/mL] | MIC ([3]; value in parentheses) [µM] | IC50 at 24 h [4] [µM] | MIC [5, 8] [µM] | MIC ([6]; Staphylococcus aureus, MRSA) [µM] | MIC [7] [µM] | MIC ([5]; 24 h) [µM] | MIC [6] [µM] |
| --- | --- | --- | --- | --- | --- | --- | --- | --- | --- | --- |
| O=C(O)c1cn(C2CC2)c2cc(N3CCNCC3)c(F)cc2c1=O [CPX, ciprofloxacin, reference compound] | 0.098 to 0.195 | – | – | – | – | – | – | – | – | – |
| Cc1ccccc1CNC(=O)c1nccnc1Cl [Compound 1, 3-Chloro-N-(2-methylbenzyl)pyrazine-2-carboxamide] | 250 | 0.009 | > 100 | – | – | – | – | – | – | – |
| Cc1ccccc1CNC(=O)c1nccnc1NCc1ccccc1C [Compound 1a, N-(2-Methylbenzyl)-3-((2-methylbenzyl)amino)pyrazine-2-carboxamide] | > 500 | 1.459 | 12.5 | 36 | > 250 | – | – | – | – | – |
| Cc1ccc(CNC(=O)c2nccnc2Cl)cc1 [Compound 2, 3-Chloro-N-(4-methylbenzyl)pyrazine-2-carboxamide] | > 500 | 0.033 | > 100 | – | – | 500 (≈ 131 µg/mL) | > 500 | 125 (≈ 32.7 µg/mL) | – | – |
| Cc1ccc(CNC(=O)c2nccnc2NCc2ccc(C)cc2)cc1 [Compound 2a, N-(4-Methylbenzyl)-3-((4-methylbenzyl)amino)pyrazine-2-carboxamide] | > 250 | 1.517 | 25 | 72 | – | – | – | – | – | – |
| COc1ccc(CNC(=O)c2nccnc2Cl)cc1 [Compound 3, 3-Chloro-N-(4-methoxybenzyl)pyrazine-2-carboxamide] | 125 | −0.202 | 25 | 90 | – | 250 (≈ 69.4 µg/mL) | 125 (≈ 34.7 µg/mL) | 31.2 (≈ 8.68 µg/mL) | – | – |
| COc1ccc(CNC(=O)c2nccnc2Cl)c(OC)c1 [Compound 4, 3-Chloro-N-(2,4-dimethoxybenzyl)pyrazine-2-carboxamide] | > 500 | −0.095 | > 100 | – | – | > 500 | > 500 | 125 (≈ 38.5 µg/mL) | – | – |
| O=C(NCc1ccccc1Cl)c1nccnc1NCc1ccccc1Cl [Compound 5a, N-(2-Chlorobenzyl)-3-((2-chlorobenzyl)amino)pyrazine-2-carboxamide] | > 500 | 1.542 | > 100 | – | – | – | – | – | – | – |
| O=C(NCc1cccc(Cl)c1)c1nccnc1Cl [Compound 6, 3-Chloro-N-(3-chlorobenzyl)pyrazine-2-carboxamide] | 125 | 0.060 | 100 | – | – | – | – | – | – | – |
| O=C(NCc1cccc(Cl)c1)c1nccnc1NCc1cccc(Cl)c1 [Compound 6a, N-(3-Chlorobenzyl)-3-((3-chlorobenzyl)amino)pyrazine-2-carboxamide] | > 500 | 1.515 | > 100 | – | – | – | – | – | – | – |
| O=C(NCc1ccc(Cl)cc1)c1nccnc1Cl [Compound 7, 3-Chloro-N-(4-chlorobenzyl)pyrazine-2-carboxamide] | 500 | 0.082 | > 100 | – | – | – | – | – | – | – |
| O=C(NCc1ccc(Cl)cc1Cl)c1nccnc1Cl [Compound 8, 3-Chloro-N-(2,4-dichlorobenzyl)pyrazine-2-carboxamide] | 125 | 0.375 | > 100 | – | – | 125 (≈ 39.6 µg/mL) | 250 (≈ 79.1 µg/mL) | 125 (≈ 39.6 µg/mL) | – | – |
| O=C(NCc1ccc(Cl)c(Cl)c1)c1nccnc1Cl [Compound 9, 3-Chloro-N-(3,4-dichlorobenzyl)pyrazine-2-carboxamide] | 250 | 0.309 | 100 | – | – | 31.2 (≈ 9.89 µg/mL) | 250 (≈ 79.1 µg/mL) | 62.5 (≈ 19.8 µg/mL) | – | – |
| O=C(NCc1ccccc1F)c1nccnc1Cl [Compound 10, 3-Chloro-N-(2-fluorobenzyl)pyrazine-2-carboxamide] | 125 | −0.154 | > 100 | – | – | – | – | – | – | – |
| O=C(NCc1ccccc1F)c1nccnc1NCc1ccccc1F [Compound 10a, N-(2-Fluorobenzyl)-3-((2-fluorobenzyl)amino)pyrazine-2-carboxamide] | > 500 | 1.108 | > 100 | – | – | – | – | – | – | – |
| O=C(NCc1ccc(F)cc1)c1nccnc1Cl [Compound 11, 3-Chloro-N-(4-fluorobenzyl)pyrazine-2-carboxamide] | 250 | −0.139 | > 100 | – | – | – | – | – | – | – |
| O=C(NCc1ccc(F)cc1)c1nccnc1NCc1ccc(F)cc1 [Compound 11a, N-(4-Fluorobenzyl)-3-((4-fluorobenzyl)amino)pyrazine-2-carboxamide] | > 500 | 1.058 | > 100 | – | – | – | – | – | – | – |
| O=C(NCc1cccc(C(F)(F)F)c1)c1nccnc1Cl [Compound 12, 3-Chloro-N-(3-(trifluoromethyl)benzyl)pyrazine-2-carboxamide] | 125 | 0.110 | > 100 | – | – | – | – | – | – | – |
| O=C(NCc1ccc(C(F)(F)F)cc1)c1nccnc1Cl [Compound 13, 3-Chloro-N-(4-(trifluoromethyl)benzyl)pyrazine-2-carboxamide] | > 500 | 0.145 | > 100 | – | – | 62.5 (≈ 19.7 µg/mL) | 500 (≈ 158 µg/mL) | 31.2 (≈ 9.87 µg/mL) | – | – |
| O=C(NCc1ccc(C(F)(F)F)cc1)c1nccnc1NCc1ccc(C(F)(F)F)cc1 [Compound 13a, N-(4-(Trifluoromethyl)benzyl)-3-((4-(trifluoromethyl)benzyl)amino)pyrazine-2-carboxamide] | > 500 | 1.593 | > 100 | – | – | > 500 | > 500 | 62.5 (≈ 28.4 µg/mL) | – | – |
| CC1(C)S[C@@H]2[C@H](NC(=O)COc3ccccc3)C(=O)N2[C@H]1C(=O)O [Penicillin V, phenoxymethylpenicillin, reference compound] | – | – | – | – | – | 3.9 (≈ 1.37 µg/mL) | 62.5 (≈ 21.9 µg/mL) | 0.12 (≈ 0.042 µg/mL) | – | – |
| CO[C@H]1/C=C/O[C@@]2(C)Oc3c(C)c(O)c4c(O)c(c(/C=N/N5CCN(C)CC5)c(O)c4c3C2=O)NC(=O)/C(C)=C\C=C\[C@H](C)[C@H](O)[C@@H](C)[C@@H](O)[C@@H](C)[C@H](OC(C)=O)[C@@H]1C [RIF, rifampicin, reference compound] | 0.78 to 1.56 | – | – | – | – | – | – | – | – | – |
| neomycin [reference compound] | – | – | – | – | – | – | – | – | 7.81 | 0.98 |
